≈ marks a conversion by molar mass, not a printed value.

Assay type in all cases: functional
For assay [1], the system named is Mycobacterium tuberculosis. Briefly: Antimycobacterial activity against fluoroquinolone-resistant Mycobacterium tuberculosis H37Rv FQ-R1 harboring unidentified mutation.
Assay [2] deals with Mycobacterium tuberculosis. In words: Antimycobacterial activity against isoniazid-resistant Mycobacterium tuberculosis H37Rv INH-R1 harboring katG Y155 truncated mutant.
Assay [3] deals with Mycobacterium tuberculosis. Briefly: Antimycobacterial activity against rifampicin-resistant Mycobacterium tuberculosis H37Rv ATCC 35828 RIF-R2.
Assay [4] relates to Mycobacterium tuberculosis. Briefly: Antimycobacterial activity against rifampicin-resistant Mycobacterium tuberculosis H37Rv RIF-R1 harboring rpoB S522L mutant.
The subject of assay [5] is Mycobacterium tuberculosis. In words: Antimycobacterial activity against ofloxacin-resistant Mycobacterium tuberculosis H37Rv ATCC 35828.
The subject of assay [6] is Mycobacterium tuberculosis. In words: Antimycobacterial activity against isoniazid-resistant Mycobacterium tuberculosis H37Rv ATCC 35822 INH-R2.
Assay [7] deals with Mycobacterium tuberculosis. In words: Antimycobacterial activity against isoniazid-resistant Mycobacterium tuberculosis H37Rv ATCC 35822.
For assay [8], the system named is Mycobacterium tuberculosis. Briefly: Antimycobacterial activity against rifampicin-resistant Mycobacterium tuberculosis H37Rv ATCC 35828.
The subject of assay [9] is Mycobacterium tuberculosis. Briefly: Antimycobacterial activity against streptomycin-resistant Mycobacterium tuberculosis H37Rv ATCC 35820 by microplate alamar blue assay. Background: Alamar Blue is a resazurin reagent that responds to reducing activity.
The subject of assay [10] is Mycobacterium tuberculosis. Briefly: Antimycobacterial activity against kanamycin-resistant Mycobacterium tuberculosis H37Rv ATCC 3582.
In assay [11] the test system is Mycobacterium tuberculosis. Briefly: Antimycobacterial activity against ethambutol-resistant Mycobacterium tuberculosis H37Rv ATCC 35837.
For assay [12], the system named is Mycobacterium tuberculosis. Briefly: Antimycobacterial activity against streptomycin-resistant Mycobacterium tuberculosis H37Rv ATCC 35820.
For assay [13], the system named is Mycobacterium tuberculosis. In words: Antimycobacterial activity against ethionamide-resistant Mycobacterium tuberculosis H37Rv ATCC 35830.

By MIC is commonly meant the lowest concentration found to suppress growth. Read a low MIC as inhibition by little substance. As for `CO[C@H]1/C=C/O[C@@]2(C)Oc3c(C)c(O)c4c(O)c(c(/C=N/N5CCN(C)CC5)c(O)c4c3C2=O)NC(=O)/C(C)=C\C=C\[C@H](C)[C@H](O)[C@@H](C)[C@@H](O)[C@@H](C)[C@H](OC(C)=O)[C@@H]1C` [RIFAMPIN], the MIC came out at 0.37 µg/mL (≈ 0.45 µM) in [1]; 0.015 µg/mL (≈ 0.0182 µM) in [2]; 0.62 µg/mL (≈ 0.753 µM) in [3]; 0.29 µg/mL (≈ 0.352 µM) in assay [4]; 0.195 µg/mL (≈ 0.237 µM) in [5]; 100 µg/mL (≈ 122 µM) in [6]. Moreover, the MIC in assay [7] came out at 0.05 µg/mL (≈ 0.0608 µM).

As for `C[C@H]1[C@H](C)CC[C@]2(CO)CC[C@]3(C)C(=CC[C@@H]4[C@@]5(C)CCCNC(C)(C)[C@@H]5CC[C@]43C)[C@@H]12`, the MIC in assay [1] is 34 µg/mL (≈ 77 µM); in assay [2], 37 µg/mL (≈ 83.8 µM); in assay [3] it was 51 µg/mL (≈ 115 µM); in assay [4], 29 µg/mL (≈ 65.6 µM); in assay [6], 39 µg/mL (≈ 88.3 µM).

In the case of `NNC(=O)c1ccncc1` [ISONIAZID], the MIC in assay [1] is 29 µg/mL (≈ 211 µM); in assay [2], >200 µg/mL; in assay [3], 1.3 µg/mL (≈ 9.48 µM); in [4], 1.2 µg/mL (≈ 8.75 µM); in assay [6], 1.4 µg/mL (≈ 10.2 µM); in assay [8] it was 0.02 µg/mL (≈ 0.146 µM).

As to `COc1ccc(/C=C/C(=O)OC[C@]23CC[C@@H](C)[C@H](C)[C@@H]2C2=CC[C@@H]4[C@@]5(C)CCCNC(C)(C)[C@@H]5CC[C@@]4(C)[C@]2(C)CC3)cc1`, the MIC in assay [1] was 20 µg/mL (≈ 33.2 µM); in assay [2], 20 µg/mL (≈ 33.2 µM); in [3], 21 µg/mL (≈ 34.9 µM); in assay [4], 24 µg/mL (≈ 39.9 µM); in [6], 17 µg/mL (≈ 28.2 µM).

As for `C[C@H]1[C@H](C)CC[C@]2(COC(=O)/C=C/c3ccccc3)CC[C@]3(C)C(=CC[C@@H]4[C@@]5(C)CCCNC(C)(C)[C@@H]5CC[C@]43C)[C@@H]12`, the MIC worked out at 27 µg/mL (≈ 47.2 µM) in assay [1]; 28 µg/mL (≈ 49 µM) in assay [2]; 24 µg/mL (≈ 42 µM) in assay [3]; 19 µg/mL (≈ 33.2 µM) in assay [4]; 15 µg/mL (≈ 26.2 µM) in assay [6].

Consider `C[C@H]1[C@H](C)CC[C@]2(C(=O)O)CC[C@]3(C)C(=CC[C@@H]4[C@@]5(C)CC[C@H](O)C(C)(C)[C@@H]5CC[C@]43C)[C@H]12` [URSOLIC ACID], for which the MIC in [9] was determined as 12.5 µg/mL (≈ 27.4 µM).

Regarding `CC1(C)CC[C@]2(CO)CC[C@]3(C)C(=CC[C@@H]4[C@@]5(C)CCCNC(C)(C)[C@@H]5CC[C@]43C)[C@H]2C1`, the MIC in assay [1] came out at 44 µg/mL (≈ 99.6 µM); in assay [2], 34 µg/mL (≈ 77 µM); in [3], 69 µg/mL (≈ 156 µM); in assay [4], 39 µg/mL (≈ 88.3 µM); in assay [6], 15 µg/mL (≈ 34 µM).

On to `C=C(C)[C@@H]1CC[C@]2(CO)CC[C@]3(C)[C@H](CC[C@@H]4[C@@]5(C)CCCNC(C)(C)[C@@H]5CC[C@]43C)[C@@H]12`, for which the MIC stood at 10 µg/mL (≈ 22.6 µM) in [10]; 5 µg/mL (≈ 11.3 µM) in assay [11]; 5 µg/mL (≈ 11.3 µM) in assay [12]; 10 µg/mL (≈ 22.6 µM) in [13]; 5 µg/mL (≈ 11.3 µM) in [7].

`C=C(C)[C@@H]1CC[C@]2(COC(=O)CCC(=O)O)CC[C@]3(C)[C@H](CC[C@@H]4[C@@]5(C)CCCNC(C)(C)[C@@H]5CC[C@]43C)[C@@H]12`: the minimal inhibitory concentration (MIC) came out at 6 µg/mL (≈ 11.1 µM) in assay [5], 6 µg/mL (≈ 11.1 µM) in assay [8] and 12 µg/mL (≈ 22.1 µM) in assay [7].

`CC1(C)CC[C@]2(COC(=O)/C=C/c3ccccc3)CC[C@]3(C)C(=CC[C@@H]4[C@@]5(C)CCCNC(C)(C)[C@@H]5CC[C@]43C)[C@H]2C1`: the MIC in assay [1] is 13 µg/mL (≈ 22.7 µM); in [2], 13 µg/mL (≈ 22.7 µM); in [3], 14 µg/mL (≈ 24.5 µM); in assay [4], 7.4 µg/mL (≈ 12.9 µM); in assay [6], 12 µg/mL (≈ 21 µM).

For the molecule `C=C(C)[C@@H]1CC[C@]2(COC(=O)/C=C/c3ccccc3)CC[C@]3(C)[C@H](CC[C@@H]4[C@@]5(C)CCCNC(C)(C)[C@@H]5CC[C@]43C)[C@@H]12`, the minimum inhibitory concentration (MIC) in assay [5] is 1 µg/mL (≈ 1.75 µM); in assay [8] it was 1 µg/mL (≈ 1.75 µM); in [7], 4 µg/mL (≈ 6.99 µM).

For the origin of these results see ChEMBL document CHEMBL4251581, “Synthesis and antimycobacterial activity of triterpeni≿ A-ring azepanes” (Eur J Med Chem, 2018).
